The target of test [1] is T1, human RIPK1 (Homo sapiens, UniProt Q13546).
T1 construct: purchased SignalChem
As to the kind of experiment: In vitro kinase activity assay (ADP-Glo). It is filed as biochemical. The conditions noted are these: recombinant RIPK1; ATP 50 μM. As to the method:
Having shown that PK6 and PK68 can inhibit activation of both RIPK1 and RIPK3 during TNF-mediated necroptosis, we sought to determine if PK6 and PK68 can directly target RIPK1 or and RIPK3 by performing in vitro kinase assays. Both PK6 and PK68 were able to block the kinase activities of both human RIPK1 and mouse RIPK1 in vitro (Fig. 4a and Supplementary Fig. 19).
(§1) Recombinant proteins were incubated with PK6 and PK68 as indicated. […] NIH3T3-RIPK3 cells were pretreated with indicated compounds for 1 h and subsequently treated with T (40 ng/ml)/S (100 nM)/Z (20 μM) or AP20187 (100 nM) for 24 h. Cell viability was determined by measuring ATP levels. e PK6 and PK68 have no effect on MLKL dimerization-induced cell death in HeLa-MLKL (1–190) cells that stably express MLKL (1–190aa) fused to DmrB. HeLa-MLKL (1–190) cells were pretreated with indicated compounds for 1 h and subsequently treated with AP20187 (100 nM) for 24 h. Cell viability was determined by measuring ATP levels.
The recombinant RIPK1 or RIPK3 protein was incubated with DMSO or the indicated compound for 15 min in the assay buffer (25 mM HEPES pH 7.2, 20 mM MgCl2, 12.5 mM MnCl2, 12.5 mM β-glycerol phosphate, 5 mM EGTA, 2 mM EDTA, and 2 mM DTT). […] The luminescence was measured to calculate the kinase activity after the addition of the ADP-Glo Kinase Assay kit following the manufacturer’s instructions (Promega).

The subject of test [2] is HeLa-MLKL (1–190) cells. As to the kind of experiment: MLKL dimerization-induced cell death (AP20187). It is filed as cell-based, human. To be noted: AP20187 100 nM, 24 h. On the procedure: as §1
Further, we evaluated the selectivity of PK68 against a panel of 369 kinases provided by Reaction Biology (at 1000 nM). […] In addition, we followed on some of the active “hits” from the kinome scan. PK68 was tested against TNIK and TRKA by a reputable CRO company. […] RIPK1 is known to mediate NF-κB activation independently of its kinase activity. […] It has been shown that homodimerization of RIPK3 or MLKL induced by the dimerizer leads to necroptosis bypassing the upstream signals[10],[37]. […] This dimerized RIPK3-induced necroptosis was blocked by RIPK3 inhibitor GSK873 but was not blocked by the RIPK1 inhibitor necrostatin-1. […] (Fig. 4e).
The cell viability was analyzed by using the CellTiter-Glo Luminescent Cell Viability Assay kit following the manufacturer’s instructions (Promega). Luminescence was measured with SpectraMax i3x (Molecular Devices).

Test [3] relates to phosphorylation of RIPK1, RIPK3, and MLKL in HT-29 cells. Briefly: Western blot of necroptotic signaling after T/S/Z. To be noted: T/S/Z 8 h. In kind it is cell-based, human. From the text:
In addition to TNF-induced necroptosis, it is known that TLR3 or TLR4 activation can also trigger necroptosis. We further evaluated the effects of PK6 and PK68 on TLR3- and TLR4-mediated necroptosis induced by poly(I:C)/z-VAD and LPS/z-VAD, respectively. […] To investigate the molecular mechanism of PK series-mediated necroptosis inhibition, we examined the effects of these compounds on the major steps of necroptotic signaling, including activation of RIPK1, RIPK3, and MLKL. […] It has been shown previously that RIPK3 activation leads to the formation of RIPK3 puncta during necroptosis.
Fig. 3 PK6 and PK68 block cellular activation of RIPK1, RIPK3, and MLKL upon necroptotic stimuli. a, b Bone marrow-derived macrophages from C57BL/6 mice or rat were pretreated with DMSO, PK6(10 μM), or PK68 (100 nM) for 1 h and subsequently treated with indicated stimuli for 24–30 h. Cell viability was determined by measuring ATP levels. L, LPS (20 ng/ml); P, poly(I:C) (50 μg/ml); S (100 nM); Z (10 μM). Data are represented as the mean ± standard deviation of triplicates. c HT-29 cells were treated with the indicated compound for 1 h prior to the treatment of T (40 ng/ml), S (100 nM), and Z (20 μM) for additional 8 h. […] The distribution of RIPK3 was detected by immunofluorescence. *P < 0.05. **P < 0.01. ***P < 0.001 […]

Several values for one entry are separate records, joined by “and”; a condition that tells them apart may be missing. Equal entries are not always repeated.

T1 sequence (Q13546 whole entry): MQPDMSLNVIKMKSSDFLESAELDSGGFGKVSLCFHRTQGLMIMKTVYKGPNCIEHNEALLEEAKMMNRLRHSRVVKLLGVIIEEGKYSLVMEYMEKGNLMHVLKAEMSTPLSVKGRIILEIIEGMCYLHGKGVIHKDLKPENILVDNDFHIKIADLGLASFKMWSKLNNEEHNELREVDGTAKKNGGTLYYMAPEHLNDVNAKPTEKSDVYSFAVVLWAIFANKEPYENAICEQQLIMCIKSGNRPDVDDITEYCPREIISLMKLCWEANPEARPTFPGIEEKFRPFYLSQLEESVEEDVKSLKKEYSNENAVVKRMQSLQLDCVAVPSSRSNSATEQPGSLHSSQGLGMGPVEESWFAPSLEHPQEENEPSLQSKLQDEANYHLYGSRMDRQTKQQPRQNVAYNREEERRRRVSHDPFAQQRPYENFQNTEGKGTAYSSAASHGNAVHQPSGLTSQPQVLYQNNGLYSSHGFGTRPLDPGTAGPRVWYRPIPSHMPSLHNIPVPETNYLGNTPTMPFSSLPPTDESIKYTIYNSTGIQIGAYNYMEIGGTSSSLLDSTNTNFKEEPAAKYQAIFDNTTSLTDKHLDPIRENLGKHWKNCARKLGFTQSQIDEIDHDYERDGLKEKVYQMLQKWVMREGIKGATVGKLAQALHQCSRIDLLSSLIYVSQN

For the compound `CC(=O)Nc1nc2ccc(-c3cnc(Cl)c(NC(=O)Cc4ccccc4)c3)cc2s1` [PK6, N-(5-(2-acetamidobenzo[d]thiazol-6-yl)-2-chloropyridin-3-yl)-2-phenylacetamide], the IC50 in test [1] came to 200 ± 130 nM. Besides, the “polymerized MLKL-induced necroptosis” value in test [2] is recorded as “neither PK6 nor PK68 had any effect”. Also, the “phosphorylation of RIPK1, RIPK3, and MLKL” value in test [3] is reported as “completely abolished”.

As for `CC(=O)Nc1nc2ccc(-c3cnc(C)c(NC(=O)OC4CCCCC4)c3)cc2s1` [PK68, cyclohexyl (5-(2-acetamidobenzo[d]thiazol-6-yl)-2-methylpyridin-3-yl)carbamate], the IC50 in test [1] was ~90 nM and 90 nM. For the same compound, in test [2], the “polymerized MLKL-induced necroptosis” value is “neither PK6 nor PK68 had any effect”. Moreover, the “phosphorylation of RIPK1, RIPK3, and MLKL” value in test [3] is on record as “completely abolished”.

The record behind these values is article PMC6591251, “Discovery of potent necroptosis inhibitors targeting RIPK1 kinase activity for the treatment of inflammatory disorder and cancer metastasis” (Cell Death & Disease, 2019).
